Experiment [1] concerns NPY-induced feeding behavior in satiated rats. The experiment is described as follows: NPY-induced food intake in satiated rats. Format: in vivo, rat. The settings on record: compound 30 mg/kg i.p., then 300 pmole NPY i.c.v.; 4 hours after NPY.
Experimental: The rats are individually housed in stainless steel cages and maintained on an 11:13 h light-dark cycle (lights off at 18:00 h) at a controlled temperature of 21-23° C. at all times. Water and food (NAFAG lab chow pellets NAFAG, Gossau, Switzerland) are available ad libidum.
The guide cannula is placed on the dura. Injection cannulas extend the guide cannulas −3.8 mm ventrally to the skull surface. Animals are allowed at least 4 days of recovery postoperatively before being used in the experiments. Cannula placement is checked postoperatively by testing all rats for their drinking response to a 50 ng intracerebroventricular (i.c.v.) injection of angiotensin II. Only rats which drink at least 2.5 ml of water within 30 min. after angiotensin II injection are used in the feeding studies.
All injections are made in the morning 2 hours after light onset. Peptides are injected in artificial cerebrospinal fluid (ACSF) in a volume of 5 μl.
Pellets are then removed from the cage subsequently at each selected time point and replaced with a new set of preweighed pellets. The food intake of animals treated with test compound may be calculated as a percentage of the food intake of control animals i.e., animals treated with vehicle. Alternatively, food intake for each group of animals subjected to a particular experimental condition may be expressed as the mean±S.E.M. Statistical analysis is performed by analysis of variance using the Student-Newman-Keuls test.
Food intake is reported as the mean±S.E.M. intake for a group of animals.
The target in experiment [2] is human dopamine D3 receptor (Homo sapiens, UniProt P35462). The experiment is described as follows: Binding to human dopamine D3 receptor, [3H]spiperone. The settings on record: cloned human receptor.
In experiment [3] the target is human Y4 receptor (Homo sapiens, UniProt P50391). Format: binding. The conditions noted are these: read-out: Binding Affinity (Ki (nM) vs. ^125I-PYY) Human Receptor Y4; Table 14.
For experiment [4], the target named is T1, 5HT1a receptor (Homo sapiens, UniProt P08908).
T1 sequence (P08908 1-422): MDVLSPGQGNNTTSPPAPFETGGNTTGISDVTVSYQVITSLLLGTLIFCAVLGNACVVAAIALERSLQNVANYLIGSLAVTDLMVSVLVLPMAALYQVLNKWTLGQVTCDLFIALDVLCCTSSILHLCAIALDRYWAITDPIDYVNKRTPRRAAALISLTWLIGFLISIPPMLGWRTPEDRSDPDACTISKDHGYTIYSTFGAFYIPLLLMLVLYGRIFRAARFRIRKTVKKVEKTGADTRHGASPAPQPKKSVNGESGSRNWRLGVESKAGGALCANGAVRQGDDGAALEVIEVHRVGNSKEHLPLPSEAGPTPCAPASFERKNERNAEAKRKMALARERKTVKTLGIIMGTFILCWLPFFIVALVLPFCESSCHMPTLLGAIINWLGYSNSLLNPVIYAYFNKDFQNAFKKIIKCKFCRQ
The experiment is described as follows: Binding to cloned human 5HT1a receptor.

The target in experiment [5] is human 5HT1Dα receptor (Homo sapiens, UniProt P28221). The experiment in a line: Binding to human 5HT1Dα receptor, [3H]serotonin. The settings on record: cloned human receptor.
Experiment [6] addresses T2, human α2A receptor (Homo sapiens, UniProt P08913).
T2 sequence (P08913 1-465): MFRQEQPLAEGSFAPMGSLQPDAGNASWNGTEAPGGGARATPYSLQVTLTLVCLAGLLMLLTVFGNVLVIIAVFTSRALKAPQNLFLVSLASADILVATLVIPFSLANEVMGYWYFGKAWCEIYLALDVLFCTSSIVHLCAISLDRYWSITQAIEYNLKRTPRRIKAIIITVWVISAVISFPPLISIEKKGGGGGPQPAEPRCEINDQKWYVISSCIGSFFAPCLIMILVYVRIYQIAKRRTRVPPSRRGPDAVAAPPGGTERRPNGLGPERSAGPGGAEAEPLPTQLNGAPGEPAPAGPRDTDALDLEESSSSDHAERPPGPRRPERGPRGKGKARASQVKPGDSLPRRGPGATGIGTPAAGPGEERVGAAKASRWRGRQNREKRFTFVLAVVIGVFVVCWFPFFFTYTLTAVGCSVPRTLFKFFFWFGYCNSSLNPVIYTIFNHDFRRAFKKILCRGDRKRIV
The experiment is described as follows: Binding to cloned human α2A adrenergic receptor, [3H]rauwolscine.

For experiment [7], the target named is T3, human Y2 receptor (Homo sapiens, UniProt P49146).
T3 sequence (P49146 1-381): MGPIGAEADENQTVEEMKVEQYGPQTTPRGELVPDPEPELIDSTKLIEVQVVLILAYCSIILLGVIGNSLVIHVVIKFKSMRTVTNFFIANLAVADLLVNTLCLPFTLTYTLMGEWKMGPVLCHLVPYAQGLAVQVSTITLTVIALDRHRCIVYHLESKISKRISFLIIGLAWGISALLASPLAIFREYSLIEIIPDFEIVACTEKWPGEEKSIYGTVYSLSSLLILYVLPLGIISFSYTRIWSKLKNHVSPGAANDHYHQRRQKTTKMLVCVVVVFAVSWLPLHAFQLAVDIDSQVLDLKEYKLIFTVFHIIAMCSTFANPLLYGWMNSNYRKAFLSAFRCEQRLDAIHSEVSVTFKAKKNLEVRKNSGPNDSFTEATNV
It counts as binding. The conditions noted are these: read-out: Binding Affinity (Ki (nM) vs. ^125I-PYY) Human Receptor Y2; Table 14.

Experiment [8] deals with human 5HT1Dβ receptor (Homo sapiens, UniProt P28222). The experiment is described as follows: Binding to human 5HT1Dβ receptor, [3H]serotonin. The conditions noted are these: cloned human receptor.
The target of experiment [9] is T4, human α2C receptor (Homo sapiens, UniProt P18825).
T4 sequence (P18825 1-462): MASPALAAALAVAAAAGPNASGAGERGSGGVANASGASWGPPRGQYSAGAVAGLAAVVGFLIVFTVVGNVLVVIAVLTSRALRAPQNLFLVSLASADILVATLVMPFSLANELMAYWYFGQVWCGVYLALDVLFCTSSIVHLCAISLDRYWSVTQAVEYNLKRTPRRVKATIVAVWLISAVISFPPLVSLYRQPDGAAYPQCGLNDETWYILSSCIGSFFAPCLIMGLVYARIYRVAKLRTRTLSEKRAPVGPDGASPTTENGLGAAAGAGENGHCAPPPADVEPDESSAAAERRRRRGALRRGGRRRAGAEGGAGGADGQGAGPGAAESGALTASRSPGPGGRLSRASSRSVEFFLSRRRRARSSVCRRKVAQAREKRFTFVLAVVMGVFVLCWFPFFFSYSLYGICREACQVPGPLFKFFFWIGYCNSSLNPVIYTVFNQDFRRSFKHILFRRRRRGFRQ
The experiment is described as follows: Binding to cloned human α2C adrenergic receptor, [3H]rauwolscine.

The Ki is the dissociation constant of the complex between target and ligand, obtained from inhibition or displacement.

Each structure is given as a SMILES string.

Sequence of human 5HT1Dα receptor (P28221 whole entry): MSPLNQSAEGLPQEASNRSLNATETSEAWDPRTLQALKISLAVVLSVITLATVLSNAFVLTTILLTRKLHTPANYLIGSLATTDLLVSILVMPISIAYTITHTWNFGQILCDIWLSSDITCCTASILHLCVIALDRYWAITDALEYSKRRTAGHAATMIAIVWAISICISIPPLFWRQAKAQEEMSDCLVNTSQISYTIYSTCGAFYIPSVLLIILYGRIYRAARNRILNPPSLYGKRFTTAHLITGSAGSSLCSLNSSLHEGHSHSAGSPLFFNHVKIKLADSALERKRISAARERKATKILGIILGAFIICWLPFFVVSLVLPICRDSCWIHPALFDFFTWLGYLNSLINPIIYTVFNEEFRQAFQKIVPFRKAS
Sequence of human Y4 receptor (P50391 whole entry): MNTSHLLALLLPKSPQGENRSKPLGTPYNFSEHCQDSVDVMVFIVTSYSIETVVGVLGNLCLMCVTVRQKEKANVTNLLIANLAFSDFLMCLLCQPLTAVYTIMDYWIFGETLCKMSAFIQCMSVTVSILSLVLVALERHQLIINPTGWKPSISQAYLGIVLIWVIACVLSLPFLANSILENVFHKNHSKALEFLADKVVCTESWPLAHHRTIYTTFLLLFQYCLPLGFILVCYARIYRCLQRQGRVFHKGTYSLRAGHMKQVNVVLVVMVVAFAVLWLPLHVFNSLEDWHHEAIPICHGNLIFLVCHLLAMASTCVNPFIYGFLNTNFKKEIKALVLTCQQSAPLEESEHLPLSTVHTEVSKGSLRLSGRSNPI
Sequence of human 5HT1Dβ receptor (P28222 whole entry): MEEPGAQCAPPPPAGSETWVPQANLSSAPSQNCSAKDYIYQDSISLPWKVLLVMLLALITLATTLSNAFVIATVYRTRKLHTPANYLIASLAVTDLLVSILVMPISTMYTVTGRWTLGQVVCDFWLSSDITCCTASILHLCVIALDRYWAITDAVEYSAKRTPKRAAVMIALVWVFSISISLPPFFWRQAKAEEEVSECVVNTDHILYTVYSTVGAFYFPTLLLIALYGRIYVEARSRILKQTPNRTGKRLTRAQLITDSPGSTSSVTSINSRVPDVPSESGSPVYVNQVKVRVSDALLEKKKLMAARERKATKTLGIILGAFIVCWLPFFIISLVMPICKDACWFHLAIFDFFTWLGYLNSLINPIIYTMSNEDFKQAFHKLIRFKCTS
Sequence of human dopamine D3 receptor (P35462 whole entry): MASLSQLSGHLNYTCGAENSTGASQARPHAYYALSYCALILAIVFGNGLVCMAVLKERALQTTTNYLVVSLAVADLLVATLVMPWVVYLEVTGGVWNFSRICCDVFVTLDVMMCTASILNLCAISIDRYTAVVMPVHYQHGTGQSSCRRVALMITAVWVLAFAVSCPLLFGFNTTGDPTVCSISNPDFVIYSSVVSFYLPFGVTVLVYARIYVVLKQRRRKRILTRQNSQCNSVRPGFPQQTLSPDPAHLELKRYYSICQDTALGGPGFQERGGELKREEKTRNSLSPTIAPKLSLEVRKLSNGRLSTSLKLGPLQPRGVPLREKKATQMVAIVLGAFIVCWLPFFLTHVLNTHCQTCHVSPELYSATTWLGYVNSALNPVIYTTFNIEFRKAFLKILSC

On to `Cl.O=S(=O)(NC[C@H]1CC[C@H](CNCC2CCc3ccccc3C2)CC1)c1cccc2ccccc12` (stereo partly drawn) [Compound 19], for which, in experiment [1], the “Food intake (g) mean ± S.E.M., NPY + compound” value is 1.5 ± 0.6 g. The “Receptor (pKi) D3” value in experiment [2] is listed as 6.69. Further, the Ki in experiment [3] turned out to be 11700 nM; in experiment [7], 955 nM. For the same compound, in experiment [4], the “Receptor (pKi) 5HT1a” value is 5.54. Further, the “Receptor (pKi) 5HT1Dα” value in [5] is recorded as 6.04. Besides, in [6], the “Receptor (pKi) α2a” value is given as 6.74.

Consider `Cl.O=[N+]([O-])c1ccccc1S(=O)(=O)NC[C@H]1CC[C@H](CNCC2CCc3ccccc3C2)CC1` (stereo partly drawn) [Compound 20], for which the “Receptor (pKi) D3” value in experiment [2] came out at 6.35. The results for the inhibitory constant (Ki) in [3] and in experiment [7] were 20400 nM and 7760 nM, respectively. Also, in [5], the “Receptor (pKi) 5HT1Dα” value is listed as 5.94. Further, in experiment [6], the “Receptor (pKi) α2a” value is listed as 7.31. For the same compound, in experiment [8], the “Receptor (pKi) 5HT1Dβ” value amounted to 5.37. Further, the “Receptor (pKi) α2c” value in experiment [9] is 7.39.

With `Cl.Cl.Nc1ccccc1S(=O)(=O)NCC1CCC(CNCC2CCc3ccccc3C2)CC1` (stereo not drawn) [Compound 22], the figures for the Ki in [3] and in experiment [7] were 27500 nM and 7570 nM, respectively. In [4], the “Receptor (pKi) 5HT1a” value turned out to be 6.56. Further, the “Receptor (pKi) 5HT1Dα” value in experiment [5] stood at 5.98. Also, the “Receptor (pKi) α2a” value in [6] is given as 7.05. Moreover, the “Receptor (pKi) 5HT1Dβ” value in experiment [8] amounted to 5.41. Moreover, the “Receptor (pKi) α2c” value in [9] stood at 7.15.

These data come from patent US6818445B2 (Synaptic Pharmaceutical Corporation, priority 1994, dated 2004).
